Data on six compounds can be found in PMC9114799, “In vitro Evaluation of Isoniazid Derivatives as Potential Agents Against Drug-Resistant Tuberculosis” (Frontiers in Pharmacology, 2022).

Values after ≈ are worked out from the molar mass of the structure shown. Like-named read-outs stand apart in the source and are kept apart here. Marks after values point to notes of the source that are not given here.

For test [1], the system named is M. tuberculosis clinical strain katG (S315T). The settings on record: ref Martins et al., cited from earlier work.
The test system is the same in test [2]. Type of test: cell-based, Mycobacterium tuberculosis.

`CCCCCCCCCC(=O)NNC(=O)c1ccncc1` [INH-C10, N′-decanoylisonicotinoylhydrazide]: in test [1] (Table S1, 2014 (per Table 2)), the “MIC (katG S315T)” value was 2.0 g/mL (≈ 6860 mM). Besides, the “MIC (katG S315T)” value in test [1] (katG (S315T) Mtb, 2014) is 6.9 ^a µM. For the same compound, in test [2], the “gain in efficacy against katG (S315T) strain compared with INH” value amounted to 6 fold and the “increase of MIC going from wt to S315T” value was about 20 fold.

Regarding `NNC(=O)c1ccncc1` [INH, isonicotinoylhydrazide, reference compound], the “MIC (katG S315T)” value in test [1] (katG (S315T) Mtb, 2014) was 43.8 ^a µM. Moreover, the “increase of MIC going from wt to S315T” value in test [2] is on record as “approximately 150 fold”.

For the compound `O=C(N/N=C/c1ccc(Oc2ccccc2)cc1)c1ccncc1` [Compound N34, (E)-N'-(4-phenoxybenzylidene)isonicotinohydrazide], the “MIC (katG S315T)” value in test [1] (katG (S315T) Mtb, 2014) was 18.9 ^a µM. For the same compound, in test [2], the “activity in the mutated strain” value is given as “still active” and the “increase of MIC going from wt to S315T” value is on record as about 20 fold.

For `COC(=O)c1ccc(CNNC(=O)c2ccncc2)cc1` [Compound N33red, methyl 4-((2-isonicotinoylhydrazinyl)methyl)benzoate], the “activity in the mutated strain” value in test [2] is recorded as “completely abolished”.

As to `O=C(NNCc1ccc(Oc2ccccc2)cc1)c1ccncc1` [Compound N34red, N'-(4-phenoxybenzyl)isonicotinohydrazide], in test [2], the “activity in the mutated strain” value is “completely abolished”.

As for `COC(=O)c1ccc(/C=N/NC(=O)c2ccncc2)cc1` [Compound N33, methyl (E)-4-((2-isonicotinoylhydrazineylidene)methyl)benzoate], in test [1] (katG (S315T) Mtb, 2014), the “MIC (katG S315T)” value is 21.2 ^a µM. Moreover, in test [2], the “activity in the mutated strain” value is listed as “still active” and the “increase of MIC going from wt to S315T” value is recorded as about 20 fold.
